Here are results for seven compounds from patent US10059689B2, “Substituted heteroaryl compounds and methods of use” (Sunshine Lake Pharma Co., Ltd., priority 2014, dated 2018).

Where only a bound is given, the exact number is not on record here.

A short description of data set [1]: Compound stability in human liver microsomes. Type of data set: in vitro ADME. To be noted: for half-life: pH 7.4, 37° C., NADPH, read-out: Human T1/2; for CLint scaled: pH 7.4, in vivo CLint extrapolated.
Another data set has as its target T1, JAK2 (h) (Homo sapiens, UniProt O60674).
T1 construct: purchased Millipore UK Ltd (contract assay service)
The data set can be described thus: JAK2 (h) kinase assay. Type of data set: biochemical. The protocol:
The above assay procedure can be used to determine the IC50 for inhibition and/or the inhibition constant, Ki. The IC50 is defined as the concentration of compound required to reduce the enzyme activity by 50% under the condition of the assay. The IC50 value is estimated by preparing a 10 point curve using a ½ log dilution series (for example, a typical curve may be prepared using the following compound concentrations: 3 μM, 1 μM, 0.3 μM, 0.1 μM, 0.03 μM, 0.01 μM, 0.003 μM, 0.001 μM, 0.0003 μM and 0 μM).
JAK2 (h) is incubated with 8 mM MOPS pH 7.0, 0.2 mM EDTA, 100 μM […], 10 mM MgAcetate and [γ-^33P-ATP] (specific activity approx. 500 cpm/pmol, concentration as required). The reaction is initiated by the addition of the MgATP mix. After incubation for 40 minutes at room temperature, the reaction is stopped by the addition of 3% phosphoric acid solution. 10 μL of the reaction is then spotted onto a P30 filtermat and washed three times for 5 minutes in 75 mM phosphoric acid and once in methanol prior to drying and scintillation counting.
The kinase assays described herein were performed at Millipore UK Ltd, Dundee Technology Park, Dundee DD2 1SW, UK.

T1 sequence (O60674 whole entry): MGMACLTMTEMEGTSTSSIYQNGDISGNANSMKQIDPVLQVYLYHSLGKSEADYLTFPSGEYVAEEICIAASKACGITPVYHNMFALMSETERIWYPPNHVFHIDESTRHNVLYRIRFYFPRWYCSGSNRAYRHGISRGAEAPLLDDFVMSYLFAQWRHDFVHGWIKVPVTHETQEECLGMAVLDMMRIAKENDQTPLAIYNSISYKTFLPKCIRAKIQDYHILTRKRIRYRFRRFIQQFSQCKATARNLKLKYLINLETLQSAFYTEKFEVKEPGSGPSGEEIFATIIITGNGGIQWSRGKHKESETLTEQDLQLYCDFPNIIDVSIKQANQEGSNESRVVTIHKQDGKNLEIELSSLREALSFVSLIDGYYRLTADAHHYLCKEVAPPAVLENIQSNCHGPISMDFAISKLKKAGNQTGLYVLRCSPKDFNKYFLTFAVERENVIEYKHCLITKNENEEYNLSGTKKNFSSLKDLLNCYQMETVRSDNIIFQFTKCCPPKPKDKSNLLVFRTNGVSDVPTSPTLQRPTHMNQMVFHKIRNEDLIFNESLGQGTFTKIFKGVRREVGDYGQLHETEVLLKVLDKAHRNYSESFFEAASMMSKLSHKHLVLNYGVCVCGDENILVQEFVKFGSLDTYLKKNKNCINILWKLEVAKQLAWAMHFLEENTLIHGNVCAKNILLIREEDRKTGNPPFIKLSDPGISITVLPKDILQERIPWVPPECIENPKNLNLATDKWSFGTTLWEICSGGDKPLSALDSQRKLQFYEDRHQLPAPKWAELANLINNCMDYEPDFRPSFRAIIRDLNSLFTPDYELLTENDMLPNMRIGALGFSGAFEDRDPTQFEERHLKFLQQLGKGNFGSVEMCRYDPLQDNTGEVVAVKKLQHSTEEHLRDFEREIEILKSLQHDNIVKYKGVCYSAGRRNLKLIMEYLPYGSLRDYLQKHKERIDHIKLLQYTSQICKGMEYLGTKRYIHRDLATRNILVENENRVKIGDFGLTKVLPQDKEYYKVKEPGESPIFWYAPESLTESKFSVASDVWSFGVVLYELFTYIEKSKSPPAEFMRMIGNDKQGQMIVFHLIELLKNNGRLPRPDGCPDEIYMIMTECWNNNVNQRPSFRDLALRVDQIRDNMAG

By CLint scaled is commonly meant the rate of metabolic loss divided by the concentration. As a reminder, the IC50 is the concentration needed to halve the response being measured. A high value points to lower potency. With `Cc1c2ccc(Nc3ncc(Cl)c(NC4CCN(c5ccc(C#N)cn5)CC4)n3)cc2nn1C` [Ex. 4], in data set [1], the half-life came to 13.2 min and the CLint scaled was 131 mL/min/kg. On JAK2 (h), the IC50 stood at 2 nM.

For `Cc1c2ccc(Nc3ncc(Cl)c(NC4CCN(c5ccc(C#N)nn5)CC4)n3)cc2nn1C` [Ex. 12, 6-(4-((5-chloro-2-((2,3-dimethyl-2H-indazol-6-yl)amino)pyrimidin-4-yl)amino)piperidin-1-yl)pyridazine-3-carbonitrile], in data set [1], the half-life worked out at 25.3 min and the CLint scaled is 68.8 mL/min/kg. At JAK2 (h), this compound came in with an IC50 of less than 0.3 nM.

As for `Cc1cc(Nc2ncc(Cl)c(NC3CCN(c4ccc(C#N)nn4)CC3)n2)nn1C` [Ex. 13, 6-(4-((5-chloro-2-((1,5-dimethyl-1H-pyrazol-3-yl)amino)pyrimidin-4-yl)amino)piperidin-1-yl)pyridazine-3-carbonitrile], in data set [1], the half-life was 68.2 min and the CLint scaled was 25.5 mL/min/kg. For the same compound, the IC50 against JAK2 (h) amounted to 1 nM.

Turning to `Cn1cc(Nc2ncc(Cl)c(NC3CCN(c4ccc(C#N)cn4)CC3)n2)cn1` [Ex. 1, 6-(4-((5-chloro-2-((1-methyl-1H-pyrazol-4-yl)amino)pyrimidin-4-yl)amino)piperidin-1-yl)nicotinonitrile], in data set [1], the half-life was 40.8 min and the CLint scaled was 42.6 mL/min/kg. On JAK2 (h), this compound yielded a 50% inhibitory concentration (IC50) of 0.5 nM.

For `Cc1nn(C)cc1Nc1ncc(Cl)c(NC2CCN(c3ccc(C#N)nn3)CC2)n1` [Ex. 11, 6-(4-((5-chloro-2-((1,3-dimethyl-1H-pyrazol-4-yl)amino)pyrimidin-4-yl)amino)piperidin-1-yl)pyridazine-3-carbonitrile], in data set [1], the half-life was found to be 13.1 min and the CLint scaled was 133 mL/min/kg. The compound further came in with an IC50 against JAK2 (h) of 2 nM.

As for `CN(c1nc(Nc2cnn(C)c2)ncc1Cl)C1CCN(c2ccc(C#N)cn2)CC1` [Ex. 5, 6-(4-((5-chloro-2-((1-methyl-1H-pyrazol-4-yl)amino)pyrimidin-4-yl) (methyl)amino)piperidin-1-yl)nicotinonitrile], in data set [1], the half-life was determined as 22.9 min and the intrinsic clearance (CLint scaled) is 75.7 mL/min/kg. Also, the IC50 against JAK2 (h) turned out to be 17 nM.

As for `Cc1nn(C)cc1Nc1ncc(Cl)c(NC2CCN(c3ccc(C#N)cn3)CC2)n1` [Ex. 10, 6-(4-((5-chloro-2-((1,3-dimethyl-1H-pyrazol-4-yl)amino)pyrimidin-4-yl)amino)piperidin-1-yl)nicotinonitrile], in data set [1], the half-life stood at 5.51 min and the CLint scaled is 315 mL/min/kg. The same compound showed an IC50 at JAK2 (h) of 1 nM.
